Measured values as given in US20100119587A1, “SOLID LIPIDIC […] AS PHARMACEUTICALLY ACCEPTABLE FILLERS OR […] FOR INHALATION” (UNIVERSITE LIBRE DE BRUXELLES, priority 2004, published 2010).
Values after ≈ are worked out from the molar mass of the structure shown.

Columns and labels:
Format in all cases: physicochemical
[1] = In vitro deposition test, FPD/FPF by Multi-stage Liquid Impinger (tobramycin formulations); details: Table 11, loaded dose = 15 mg, Cyclohaler 100 l/min 2.4 s, n = 3
Procedure: The Fine Particle Dose has been determined by the method described in the European Pharmacopoeia 4 for the aerodynamic assessment of fine particle, using Apparatus C—Multi-stage Liquid Impinger (MsLI) […] The flow rate was adjusted to a pressure drop of 4 kPa, as typical for inspiration by a patient, resulting in a flow rate of 100 l/min during 2.4 seconds. At least 3 FPD determinations were performed on each formulation and analysis were carried out by a suitable and validated analytical HPLC method. In order to increase the UV absorptivity of the molecule, a derivatization method was applied. The suitable and validated quantification method is described in the USP 25. The HPLC system consisted of a High Performance Liquid Chromatography system (HP 1100 series, Agilent technologies, Belgium), equipped with a quartenary pump, an autosampler and a variable wavelength UV detector set at 360 nm. The separation system was a 39 cm×3.9 mm stainless steel (5 μm particle size) reversed-phase C18 column (Alltima, Alltech, Belgium). Samples of 20 μl volume were injected. The mobile phase was prepared by dissolving 2 g of Tris(hydroxymethyl)aminomethane in 800 ml of water. […] The mass of test substance deposited on each stage was determined from the HPLC analysis of the recovered solutions. […] It is considered to be directly proportional to the amount of drug able to reach the pulmonary tract in vivo, and consequently, the higher the value FPD, the higher the estimated lung deposition.

[2] = Solubility in isopropanol; details: organic solvent or mixture
[3] = Particle size distribution by laser diffraction (Mastersizer 2000, dry sampling)
Procedure: For each SLP composition, the particle size distribution is measured by laser diffractometry, using a dry sampling system with a suitable SOP (Standard Operating Procedure), (Scirocco®, Mastersizer 2000, Malvern, UK).
The size distributions are expressed in terms of the mass median diameter d(0.5), i.e. the size in microns which 50% of the sample is smaller and 50% is larger, and in terms of the volume (mass) mean diameter D[4,3].

FPD [1]: 7.2 ± 0.6 mg
FPF [1]: 48.1 ± 0.4%
FPF ([1]; listed as uncoated micronized tobramycin): around 48%
solubility [2]: 50 µg/mL (≈ 107 µM)
d (0.5) ([3]; Table 10, Example 13, dry powder form, mean ± S.D., n = 3): 1.29 ± 0.02 μm
D [4, 3] ([3]; Table 10, Example 13, dry powder form, n = 3): 1.54 ± 0.01 μm
% <5.0 μm ([3]; Table 10, Example 13, n = 3): 99.3 ± 0.2%
SMILES: NC[C@H]1O[C@H](O[C@H]2[C@H](O)[C@@H](O[C@H]3O[C@H](CO)[C@@H](O)[C@H](N)[C@H]3O)[C@H](N)C[C@@H]2N)[C@H](N)C[C@@H]1O [Tobra μ, tobramycin]
